# Measurements as given in patent US20210145716A9, “COMPOSITION FOR HAIR FRIZZ REDUCTION” (The Procter & Gamble Company, priority 2015, published 2021).
# Assay: Expert rating of hair switches for frizz, clean feel and greasy feel
# Details: 1% in ethanol/water leave-on, pH 4.2
# Method: Additional leave-on treatment compositions are prepared (Tables 1 and 2) according to the procedure described above, which are used to treat hair switches using the procedure described above (amount of 0.10 g of composition per g of hair). The switch is kept at high humidity (above 85%) for 2 hours. Then, ten experts are asked to rate each hair switch in terms of frizz, clean feel, and greasy feel, based on a 5 point scale, 5 being the highest and 1 being the lowest rating. Acceptable values are: • For frizz, less than 2 (lower number corresponds to less frizz); • For no greasy feel less than 3, (lower number corresponds to less greasy feel), and • For clean feel greater than 3 (higher number corresponds to cleaner feel).
row,Compound,Hair switch rating summary (in words)
1,"O=C(O)c1ccc(O)cc1O [2,4-Dihydroxybenzoic acid]",fizz protection with clean feel and without greasy feel negative
2,O=S(=O)(O)c1ccc(O)cc1 [4-Hydroxybenzenesulphonic acid],fizz protection with clean feel and without greasy feel negative
3,CCCCCCCCC(CO)CCCCCC (stereo not shown) [2-Hexyl-1-decanol],frizz protection with clean feel and without greasy feel negative
4,O=C(OCCO)c1ccccc1O [2-Hydroxyethyl salicylate],frizz protection with clean feel and without greasy feel negative
5,CC(C)CCCCCCCCCCCCCCCOC(=O)CCCCCCCCCCCCCCC(C)C [Isostearyl isostearate],frizz protection with clean feel and without greasy feel negative
6,O=C(O)c1ccccc1O [Salicylic acid],fizz protection with clean feel and without greasy feel negative
7,O=C(O)c1cc(Cl)ccc1O [5-Chlorosalicylic acid],fizz protection with clean feel and without greasy feel negative
